Experimental data as given in patent US20230346893A1, “Methods and Compositions for Preventing or Minimizing Epithelial-Mesenchymal Transition” (Innovon Pharmaceuticals Inc., priority 2016, published 2023).

Assays:
HK-2 cells [1] = assay: TGF-β-induced collagen 1 mRNA expression (EMT marker) in HK-2 cells, quantitative real-time PCR; type: cell-based, human
HK-2 cells [2] = assay: as above; type: cell-based, human; details: for Effect on expression of collagen in TGF-β-induced HK-2 cells (in words): alone or formulated with albumin, concentrations of Table 1; for Changes in collagen mRNA expression (relative to TGF-β-treated cells): fatty acid concentration 5.0 × 10^−4M, TGF-β 10 ng/ml
Description: HSA was dissolved in PBS to obtain a concentration of 6.6% (6.6 g/100 ml), and was filtered using a 0.2 μm filter. 75 μl of sodium octanoate or sodium decanoate 10 mM was mixed with 75 μl of HSA 6.6% (without vortex), and incubated 10 min at room temperature. 100 μL of this mixture was used in the assay of Example 4 in a final volume of 1 ml (dilution 1:10).
Analysis was undertaken to determine the effect of various compositions on TGF-β-induced collagen 1 expression, which is a marker of EMT, on immortalized human proximal tubule epithelial cells (HK-2 cells). HK-2 cells were treated with TGF-β (an inducer of EMT) at a concentration of 10 ng/ml. Expression of the EMT marker collagen 1 mRNA was determined by quantitative real-time PCR.
(§1) Real-Time PCR was using human TaqMan Gene Expression Assay normalized to human GAPDH endogenous control. Reference is TGF-β1 control (RQ=1). The * and ** mean a p value of 0.05 and 0.01 respectively, compared to reference. Tested concentration of the mixture of sodium octanoate and sodium decanoate is 500 μM. The number of experiments is 3 (n=3).

[3] = tested on: human lung epithelial cell A549; assay: Collagen 1a1 mRNA expression (EMT marker) in TGF-β induced A549; type: cell-based; details: 500 μM; both in presence of albumin (With HSA) or absence of albumin (No HSA); n=3
Description: as §1, with “***” for “*”, “****” for “**”, “0.001” for “0.05”, “0.0001” for “0.01”, “concentration” for “concentration of the mixture”

[4] = tested on: human microvascular endothelial cells (HMEC); assay: Collagen 1a1 mRNA expression (EndoMT/EMT marker) in TGF-β induced HMEC; type: cell-based; details: 500 μM; both in presence of albumin (With HSA) or absence of albumin (No HSA); n=3
Description: Endothelial to mesenchymal transition (EndoMT), which is included in the definition of the expression EMT as used in the present description, can be induced by transforming growth factor (TGF-β). […] Real-Time PCR was using human TaqMan Gene Expression Assay normalized to human GAPDH endogenous control. Reference is TGF-β1 control (RQ=1). The ** and *** mean a p value of 0.01 and 0.001 respectively, compared to reference. Tested concentration of sodium octanoate and sodium decanoate is 500 μM. The number of experiments is 3 (n=3).

[5] = tested on: human hepatocellular carcinoma cell line HepG2; assay: Collagen 1a1 mRNA expression (EMT marker) in TGF-β induced HepG2; type: cell-based; details: 500 μM; both in presence of albumin (With HSA) or absence of albumin (No HSA); n=3
Description: as §1, with “*, **” for “*”, “****” for “**”, “0.05, 0.01” for “0.05”, “0.0001” for “0.01”, “concentration” for “concentration of the mixture”

PC-3 cells = assay: Scratch assay, migration/invasion of mitomycin-treated EGF-induced PC-3 cells; type: cell-based, human; details: EGF 50 ng/mL + Mitomycin C 10 μg/mL, 24 h; for EGF-induced PC-3 migration or invasion (FIG. 7, in words): with and without albumin
Text: The present experiment exemplifies EMT analysis of cancer cells through invasion/migration of PC-3 cell in a “scratch assay”. This assay is based on the observation that, upon creation of a new artificial gap, so called ‘scratch’, on a confluent cell monolayer, the cells on the edge of the newly created gap will move toward the opening to close the scratch. EGF ([…]) was used to induce the migratory/invasion of PC-3 cells into the scratch. Briefly, culture-inserts are placed in a 24-well cell culture plate. PC-3 cells are seeded in culture-inserts and are incubated overnight at 37° C. in a CO2 incubator. Cells are then starved with serum-free medium for another 24 hours. The insert is removed, leaving a visible 500 μm cell-free gap. Cells were treated for 24 h with EGF at 50 ng/mL and Mitomycin C at 10 μg/mL (Mito+EGF) and with a pro-EMT agent, sodium octanoate (Mito+EGF+sodium octanoate) or an anti-EMT agent, sodium decanoate (Mito+EGF+sodium decanoate), with HSA (second row in FIG. 7) and without HSA (first row in FIG. 7). Pictures are taken at 1 h post-treatment as a confluence control for each group. After 24 h, cells are fixed with Crystal Violet staining and air dried before 24 h post treatment pictures are taken.

[6] = fatty acid concentration 2.5 × 10^−4M, TGF-β 10 ng/ml

With `CCCCCCCCCC(=O)O` [Decanoic Acid] as the compound, how does the “Changes in collagen mRNA expression (relative to TGF-β-treated cells)” value (shortened to “Changes … (relative to TGF-β-treated cells)”) (HK-2 cells [1]; fatty acid concentration 5.8 × 10^−7M, TGF-β 10 ng/ml) read?
Its value is 105.4% of decrease.

Which “Effect on expression of collagen in TGF-β-induced HK-2 cells (in words)” value (“Effect on expression of collagen” below) (HK-2 cells [2]) does the source give for `CCCCCCCCC(=O)O` [Nonanoic Acid] here?
The value was “inhibited the expression of collagen”.

And the “Changes … (relative to TGF-β-treated cells)” value (HK-2 cells [1]; fatty acid concentration 6.3 × 10^−7M, TGF-β 10 ng/ml)?
The value was 51.4% of decrease.

With `CCCCCCCCCC(=O)[O-].[Na+]` [Sodium Decanoate] as the compound, how does the “Mesenchymal transition induced by TGF-β (collagen 1a1 mRNA expression, FIG. 6, in words)” value [3] read?
The value was “reduced significantly the mesenchymal transition”.

What about the “Mesenchymal transition induced by TGF-β (collagen 1a1 mRNA expression, FIG. 4, in words)” value [4] of the same compound?
Its value is “reduced significantly the mesenchymal transition”.

And the “Mesenchymal transition induced by TGF-β (collagen 1a1 mRNA expression, FIG. 5, in words)” value [5]?
Its value is “reduced significantly the mesenchymal transition”.

What about the “Effect on expression of collagen” value (HK-2 cells [2]) of the same compound?
Its value is “decrease (or inhibit) the expression of collagen”.

What about the “Changes … (relative to TGF-β-treated cells)” value (HK-2 cells [2]) of the same compound?
The value was 103.4% of decrease.

What about the “Changes … (relative to TGF-β-treated cells)” value (HK-2 cells [1]; [6]) of the same compound?
The value was 66.6% of decrease.

What about the “EGF-induced PC-3 migration or invasion (FIG. 7, in words)” value (PC-3 cells) of the same compound?
Its value is “inhibition of the EGF-induced PC-3 migration or invasion”.

How did the “Effect on expression of collagen” value (HK-2 cells [2]) turn out when `CCCCCCCCCCCC(=O)[O-].[Na+]` [Sodium Laurate] was run?
Its value is “inhibited the expression of collagen”.

And the “Changes … (relative to TGF-β-treated cells)” value (HK-2 cells [1]; fatty acid concentration 1.0 × 10^−4M, TGF-β 10 ng/ml)?
The value was 113.7% of decrease.

With `CCCCCCCC(=O)[O-].[Na+]` [Sodium Octanoate, reference compound] as the compound, how does the “Mesenchymal transition induced by TGF-β (collagen 1a1 mRNA expression, FIG. 6, in words)” value [3] read?
The value was “no significant results”.

What about the “Mesenchymal transition induced by TGF-β (collagen 1a1 mRNA expression, FIG. 4, in words)” value [4] of the same compound?
The value was “contrarily”.

What about the “Mesenchymal transition induced by TGF-β (collagen 1a1 mRNA expression, FIG. 5, in words)” value [5] of the same compound?
The value was “contrarily”.

What about the “Effect on expression of collagen” value (HK-2 cells [2]) of the same compound?
Its value is “expression of collagen was increased (or stimulated)”.

What about the “Changes … (relative to TGF-β-treated cells)” value (HK-2 cells [2]) of the same compound?
Its value is 24.1% of increase.

And the “Changes … (relative to TGF-β-treated cells)” value (HK-2 cells [1]; [6])?
Its value is 42.2% of increase.

What about the “EGF-induced PC-3 migration (FIG. 7, in words)” value (PC-3 cells; combined with albumin) of the same compound?
Its value is “migration is increased”.

And the “EGF-induced PC-3 migration or invasion (FIG. 7, in words)” value (PC-3 cells)?
The value was “does not inhibit the cell migration”.

`CCCCCCCCCC(=O)OCC(COC(=O)CCCCCCCCC)OC(=O)CCCCCCCCC` [Tricaprin] was tested. Which “Changes … (relative to TGF-β-treated cells)” value (HK-2 cells [1]; triglyceride concentration 5%) did it give?
Its value is 120.4% of decrease.

How did the “Changes … (relative to TGF-β-treated cells)” value (HK-2 cells [1]; triglyceride concentration 5%) turn out when `CCCCCCCCCCCC(=O)OCC(COC(=O)CCCCCCCCCCC)OC(=O)CCCCCCCCCCC` [Trilaurin] was run?
Its value is 84.6% of decrease.

For `CCCCCCCCCCCCCC(=O)OCC(COC(=O)CCCCCCCCCCCCC)OC(=O)CCCCCCCCCCCCC` [Trimyristin], which “Changes … (relative to TGF-β-treated cells)” value (HK-2 cells [1]; triglyceride concentration 5%) is on record?
Its value is 52.3% of decrease.

What does the source list for `CCCCCCCCCCC(=O)O` [Undecanoic Acid]?
Effect on expression of collagen in TGF-β-induced HK-2 cells (in words) (HK-2 cells [2]): inhibited the expression of collagen; Changes in collagen mRNA expression (relative to TGF-β-treated cells) (HK-2 cells [1]; fatty acid concentration 2.7 × 10^−7M, TGF-β 10 ng/ml): 120.95% of decrease
